# Results from ChEMBL document CHEMBL5154747, “Discovery of new carbonic anhydrase IX inhibitors as anticancer agents by toning the hydrophobic and hydrophilic rims of the active site to encounter the dual-tail approach” (Eur J Med Chem, 2022).
# Key:
# KM12 = assay: Anticancer activity against human KM12 cells assessed as cell growth inhibition at 10 uM incubated for 48 hrs by SRB assay relative to control; format: functional; settings: read-out: GI
# NCI-H522 = assay: Anticancer activity against human NCI-H522 cells assessed as cell growth inhibition at 10 uM incubated for 48 hrs by SRB assay relative to control; format: functional; settings: read-out: GI
# RPMI-8226 = assay: Anticancer activity against human RPMI-8226 cells assessed as cell growth inhibition at 10 uM incubated for 48 hrs by SRB assay relative to control; format: functional; settings: read-out: GI
# Hs-578T = assay: Anticancer activity against human Hs-578T cells assessed as cell growth inhibition at 10 uM incubated for 48 hrs by SRB assay relative to control; format: functional; settings: read-out: GI
# SF-539 = assay: Anticancer activity against human SF-539 cells assessed as cell growth inhibition at 10 uM incubated for 48 hrs by SRB assay relative to control; format: functional; settings: read-out: GI
# MCF7 = assay: Anticancer activity against human MCF7 cells assessed as cell growth inhibition at 10 uM incubated for 48 hrs by SRB assay relative to control; format: functional; settings: read-out: GI
# NCI-H322M = assay: Anticancer activity against human NCI-H322M cells assessed as cell growth inhibition at 10 uM incubated for 48 hrs by SRB assay relative to control; format: functional; settings: read-out: GI
# NCI-H460 = assay: Anticancer activity against human NCI-H460 cells assessed as cell growth inhibition at 10 uM incubated for 48 hrs by SRB assay relative to control; format: functional; settings: read-out: GI
# HCC 2998 = assay: Anticancer activity against human HCC 2998 cells assessed as cell growth inhibition at 10 uM incubated for 48 hrs by SRB assay relative to control; format: functional; settings: read-out: GI
# UACC-62 = assay: Anticancer activity against human UACC-62 cells assessed as cell growth inhibition at 10 uM incubated for 48 hrs by SRB assay relative to control; format: functional; settings: read-out: GI
# SF-295 = assay: Anticancer activity against human SF-295 cells assessed as cell growth inhibition at 10 uM incubated for 48 hrs by SRB assay relative to control; format: functional; settings: read-out: GI
# MDA-MB-468 = assay: Anticancer activity against human MDA-MB-468 cells assessed as cell growth inhibition at 10 uM incubated for 48 hrs by SRB assay relative to control; format: functional; settings: read-out: GI
# DU-145 = assay: Anticancer activity against human DU-145 cells assessed as cell growth inhibition at 10 uM incubated for 48 hrs by SRB assay relative to control; format: functional; settings: read-out: GI
# A549 = assay: Anticancer activity against human A549 cells assessed as cell growth inhibition at 10 uM incubated for 48 hrs by SRB assay relative to control; format: functional; settings: read-out: GI
# SK-MEL-5 = assay: Anticancer activity against human SK-MEL-5 cells assessed as cell growth inhibition at 10 uM incubated for 48 hrs by SRB assay relative to control; format: functional; settings: read-out: GI
# SK-MEL-2 = assay: Anticancer activity against human SK-MEL-2 cells assessed as cell growth inhibition at 10 uM incubated for 48 hrs by SRB assay relative to control; format: functional; settings: read-out: GI
# MDA-MB-435 = assay: Anticancer activity against human MDA-MB-435 cells assessed as cell growth inhibition at 10 uM incubated for 48 hrs by SRB assay relative to control; format: functional; settings: read-out: GI
# Malme-3M = assay: Anticancer activity against human Malme-3M cells assessed as cell growth inhibition at 10 uM incubated for 48 hrs by SRB assay relative to control; format: functional; settings: read-out: GI
# PC-3 = assay: Anticancer activity against human PC-3 cells assessed as cell growth inhibition at 10 uM incubated for 48 hrs by SRB assay relative to control; format: functional; settings: read-out: GI
# HOP-92 = assay: Anticancer activity against human HOP-92 cells assessed as cell growth inhibition at 10 uM incubated for 48 hrs by SRB assay relative to control; format: functional; settings: read-out: GI
# UO-31 = assay: Anticancer activity against human UO-31 cells assessed as cell growth inhibition at 10 uM incubated for 48 hrs by SRB assay relative to control; format: functional; settings: read-out: GI
# Carbonic anhydrase 9 = Carbonic anhydrase 9 (Homo sapiens, UniProt Q16790); assay: Inhibition of recombinant human CA 9 preincubated for 15 mins by phenol red dye based stopped flow CO2 hydration assay
# U-251 = assay: Anticancer activity against human U-251 cells assessed as cell growth inhibition at 10 uM incubated for 48 hrs by SRB assay relative to control; format: functional; settings: read-out: GI
# T47D = assay: Anticancer activity against human T47D cells assessed as cell growth inhibition at 10 uM incubated for 48 hrs by SRB assay relative to control; format: functional; settings: read-out: GI
# NCI-H23 = assay: Anticancer activity against human NCI-H23 cells assessed as cell growth inhibition at 10 uM incubated for 48 hrs by SRB assay relative to control; format: functional; settings: read-out: GI
# CCRF-CEM = assay: Anticancer activity against human CCRF-CEM cells assessed as cell growth inhibition at 10 uM incubated for 48 hrs by SRB assay relative to control; format: functional; settings: read-out: GI
# A498 = assay: Anticancer activity against human A498 cells assessed as cell growth inhibition at 10 uM incubated for 48 hrs by SRB assay relative to control; format: functional; settings: read-out: GI
# SNB-19 = assay: Anticancer activity against human SNB-19 cells assessed as cell growth inhibition at 10 uM incubated for 48 hrs by SRB assay relative to control; format: functional; settings: read-out: GI
# EKVX = assay: Anticancer activity against human EKVX cells assessed as cell growth inhibition at 10 uM incubated for 48 hrs by SRB assay relative to control; format: functional; settings: read-out: GI
# COLO 205 = assay: Anticancer activity against human COLO 205 cells assessed as cell growth inhibition at 10 uM incubated for 48 hrs by SRB assay relative to control; format: functional; settings: read-out: GI
# CAKI-1 = assay: Anticancer activity against human CAKI-1 cells assessed as cell growth inhibition at 10 uM incubated for 48 hrs by SRB assay relative to control; format: functional; settings: read-out: GI
# SW-620 = assay: Anticancer activity against human SW-620 cells assessed as cell growth inhibition at 10 uM incubated for 48 hrs by SRB assay relative to control; format: functional; settings: read-out: GI
# HT-29 = assay: Anticancer activity against human HT-29 cells assessed as cell growth inhibition at 10 uM incubated for 48 hrs by SRB assay relative to control; format: functional; settings: read-out: GI
# K562 = assay: Anticancer activity against human K562 cells assessed as cell growth inhibition at 10 uM incubated for 48 hrs by SRB assay relative to control; format: functional; settings: read-out: GI
# HOP-62 = assay: Anticancer activity against human HOP-62 cells assessed as cell growth inhibition at 10 uM incubated for 48 hrs by SRB assay relative to control; format: functional; settings: read-out: GI
# NCI-H226 = assay: Anticancer activity against human NCI-H226 cells assessed as cell growth inhibition at 10 uM incubated for 48 hrs by SRB assay relative to control; format: functional; settings: read-out: GI
# UACC-257 = assay: Anticancer activity against human UACC-257 cells assessed as cell growth inhibition at 10 uM incubated for 48 hrs by SRB assay relative to control; format: functional; settings: read-out: GI
# OVCAR-8 = assay: Anticancer activity against human OVCAR-8 cells assessed as cell growth inhibition at 10 uM incubated for 48 hrs by SRB assay relative to control; format: functional; settings: read-out: GI
# SK-OV-3 = assay: Anticancer activity against human SK-OV-3 cells assessed as cell growth inhibition at 10 uM incubated for 48 hrs by SRB assay relative to control; format: functional; settings: read-out: GI
# OVCAR-3 = assay: Anticancer activity against human OVCAR-3 cells assessed as cell growth inhibition at 10 uM incubated for 48 hrs by SRB assay relative to control; format: functional; settings: read-out: GI
Compound,inhibition of growth at 10 µM (KM12),inhibition of growth at 10 µM (NCI-H522),inhibition of growth at 10 µM (RPMI-8226),inhibition of growth at 10 µM (Hs-578T),inhibition of growth at 10 µM (SF-539),inhibition of growth at 10 µM (MCF7),inhibition of growth at 10 µM (NCI-H322M),inhibition of growth at 10 µM (NCI-H460),inhibition of growth at 10 µM (HCC 2998),inhibition of growth at 10 µM (UACC-62),inhibition of growth at 10 µM (SF-295),inhibition of growth at 10 µM (MDA-MB-468),inhibition of growth at 10 µM (DU-145),inhibition of growth at 10 µM (A549),inhibition of growth at 10 µM (SK-MEL-5),inhibition of growth at 10 µM (SK-MEL-2),inhibition of growth at 10 µM (MDA-MB-435),inhibition of growth at 10 µM (Malme-3M),inhibition of growth at 10 µM (PC-3),inhibition of growth at 10 µM (HOP-92),other results
NS(=O)(=O)c1ccc(Nc2nc(N/N=C/c3ccc([N+](=O)[O-])cc3)nc(Nc3ccccc3)n2)cc1,62%,51%,56%,46%,136%,90%,60%,98%,80%,54%,42%,98%,56%,< 10%,67%,81%,66%,63%,49%,50%,inhibition of growth at 10 µM (UO-31): 18%; Ki (Carbonic anhydrase 9): 0.0317 µM; inhibition of growth at 10 µM (U-251): 81%; inhibition of growth at 10 µM (T47D): 85%; inhibition of growth at 10 µM (NCI-H23): 87%; inhibition of growth at 10 µM (CCRF-CEM): 88%; inhibition of growth at 10 µM (A498): 81%; inhibition of growth at 10 µM (SNB-19): 79%; inhibition of growth at 10 µM (EKVX): 16%; inhibition of growth at 10 µM (COLO 205): 76%; inhibition of growth at 10 µM (CAKI-1): 49%; inhibition of growth at 10 µM (SW-620): 81%; inhibition of growth at 10 µM (HT-29): 75%; inhibition of growth at 10 µM (K562): 79%; inhibition of growth at 10 µM (HOP-62): 90%; inhibition of growth at 10 µM (NCI-H226): 40%; inhibition of growth at 10 µM (UACC-257): 17%; inhibition of growth at 10 µM (OVCAR-8): 66%; inhibition of growth at 10 µM (SK-OV-3): 32%; inhibition of growth at 10 µM (OVCAR-3): 53%
NS(=O)(=O)c1ccc(Nc2nc(N/N=C/c3ccc(Cl)cc3)nc(Nc3ccccc3)n2)cc1,36%,20%,45%,35%,46%,61%,< 10%,27%,23%,25%,41%,33%,27%,37%,30%,18%,42%,11%,48%,< 10%,inhibition of growth at 10 µM (UO-31): 17%; Ki (Carbonic anhydrase 9): 0.0226 µM; inhibition of growth at 10 µM (U-251): 45%; inhibition of growth at 10 µM (T47D): 55%; inhibition of growth at 10 µM (NCI-H23): 12%; inhibition of growth at 10 µM (CCRF-CEM): 80%; inhibition of growth at 10 µM (A498): 23%; inhibition of growth at 10 µM (SNB-19): 18%; inhibition of growth at 10 µM (EKVX): 23%; inhibition of growth at 10 µM (COLO 205): 26%; inhibition of growth at 10 µM (CAKI-1): 37%; inhibition of growth at 10 µM (SW-620): < 10%; inhibition of growth at 10 µM (HT-29): 65%; inhibition of growth at 10 µM (K562): 40%; inhibition of growth at 10 µM (HOP-62): 16%; inhibition of growth at 10 µM (NCI-H226): 18%; inhibition of growth at 10 µM (UACC-257): 10%; inhibition of growth at 10 µM (OVCAR-8): 32%; inhibition of growth at 10 µM (SK-OV-3): < 10%; inhibition of growth at 10 µM (OVCAR-3): 29%
Cc1ccc(/C=N/Nc2nc(Nc3ccccc3)nc(Nc3ccc(S(N)(=O)=O)cc3)n2)cc1,34%,10%,56%,37%,55%,73%,> 10%,45%,25%,< 10%,42%,35%,34%,16%,23%,22%,30%,< 10%,33%,> 10%,inhibition of growth at 10 µM (UO-31): 31%; Ki (Carbonic anhydrase 9): 0.0269 µM; inhibition of growth at 10 µM (U-251): 37%; inhibition of growth at 10 µM (T47D): 45%; inhibition of growth at 10 µM (NCI-H23): 23%; inhibition of growth at 10 µM (CCRF-CEM): 57%; inhibition of growth at 10 µM (A498): 45%; inhibition of growth at 10 µM (SNB-19): 22%; inhibition of growth at 10 µM (EKVX): 21%; inhibition of growth at 10 µM (COLO 205): 16%; inhibition of growth at 10 µM (CAKI-1): 39%; inhibition of growth at 10 µM (SW-620): < 10%; inhibition of growth at 10 µM (HT-29): 45%; inhibition of growth at 10 µM (K562): 43%; inhibition of growth at 10 µM (HOP-62): 13%; inhibition of growth at 10 µM (NCI-H226): 20%; inhibition of growth at 10 µM (UACC-257): < 10%; inhibition of growth at 10 µM (OVCAR-8): 30%; inhibition of growth at 10 µM (SK-OV-3): < 10%; inhibition of growth at 10 µM (OVCAR-3): 39%
